According to patent publication US9738631B2, “Compositions and methods for the treatment of neurological disorders” (CELLIXBIO PRIVATE LIMITED, priority 2012, dated 2017):

Experiments:
[1] = Pharmacokinetic profiles over 24 hours in normal and diabetic rats (toxicokinetic study); assay type: in vivo, Sprague Dawely rats; details: for reduction of AUC0-24 by diabetes / reduction of AUC0-inf by diabetes / reduction of Cmax by diabetes: streptozotocin-diabetic rats
Experimental: Toxicokinetic Effects of Carbamazepine and Formula (1-2) in Diabetic Rats […] Animals were divided into […], normal and diabetic sets; each set was divided into control and three-treated groups where rats received orally carbamazepine and formula (1-2) in dose levels of 100 and 200 mg/kg once daily for 28 days. The pharmacokinetic profiles were carried out over a period of 24 hours. The liver functions were evaluated by the determination of albumin, ALT and AST plasma levels and kidney functions were determined by creatinine and urea. Histopathology of rat's livers and kidneys were also investigated. Carbamazepine plasma levels were determined by a validated HPLC method.

[2] = tested on: adult male Sprague Dawely rats; test: Liver and kidney functions (albumin, ALT, AST, creatinine, urea) after 28 days oral dosing; assay type: in vivo
Experimental: Toxicokinetic Effects of Carbamazepine and Formula (1-2) in Diabetic Rats
Diabetes was induced in adult male Sprague Dawely rats by streptozotocin (60 mg/kg, ip). Animals were divided into […], normal and diabetic sets; each set was divided into control and three-treated groups where rats received orally carbamazepine and formula (1-2) in dose levels of 100 and 200 mg/kg once daily for 28 days. The pharmacokinetic profiles were carried out over a period of 24 hours. The liver functions were evaluated by the determination of albumin, ALT and AST plasma levels and kidney functions were determined by creatinine and urea. Histopathology of rat's livers and kidneys were also investigated. Carbamazepine plasma levels were determined by a validated HPLC method.

[3] = treated groups, 100 and 200 mg/kg orally once daily for 28 days, P<0.05

NC(=O)N1c2ccccc2C=Cc2ccccc21 [carbamazepine, Carbamazepine]
reduction of AUC0-24 by diabetes ([1]; carbamazepine 100 mg/kg orally): 13.6% | reduction of AUC0-inf by diabetes ([1]; carbamazepine 100 mg/kg orally): 22.8% | reduction of Cmax by diabetes ([1]; carbamazepine 100 mg/kg orally): 6.8% | reduction of AUC0-24 by diabetes ([1]; carbamazepine 200 mg/kg orally): 12.2% | reduction of AUC0-inf by diabetes ([1]; carbamazepine 200 mg/kg orally): 32.8% | reduction of Cmax by diabetes ([1]; carbamazepine 200 mg/kg orally): 20.3% | effect of diabetes on the rate and extent of absorption ([1]; diabetic rats, P<0.05): significantly altered | elevation of liver enzymes, urea and creatinine in diabetic rats compared with normal rats ([2]; diabetic rats): more pronounced in diabetic rats | Liver enzymes levels [2, 3]: significantly elevated | creatinine levels [2, 3]: significantly elevated | urea levels [2, 3]: significantly elevated
